Test results: paper PMC12470154, “In Vitro Evaluation of Antimicrobial Amyloidogenic Peptides for the Treatment of Early and Mature Bacterial Biofilms” (International Journal of Molecular Sciences, 2025)

Columns and labels:
[1] = test system: MRSA (SA 180-F strain); test: Early biofilm formation, crystal violet staining; type: cell-based, methicillin-resistant Staphylococcus aureus; settings: for concentration given with ↓ (crystal violet): 24 h; for biofilm biomass following treatment (crystal violet): Table 3; for effectiveness compared to meropenem: tested concentrations 0.01, 0.1, 1, 10 mg/mL, crystal violet
Description: (§1) After 24 h of incubation, the medium was removed. To assess the total biofilm biomass, the wells were rinsed with sterile PBS solution and stained with 0.1% crystal violet. The dye bound to the surface was then removed using 95% ethanol. To assess the presence of metabolically active cells, 0.3% MTT (PanEco Ltd., Moscow, Russia) solution was added to each well, and the plates were incubated at 37 °C for 2 h. After incubation, the MTT solution was removed, 150 µL of DMSO (Chimmed, Moscow, Russia) and 25 µL of glycine buffer were added to each well, and the plates were left at room temperature for 15 min. The resulting solutions were transferred to a flat-bottom 96-well plate, and optical density was measured at 595 nm.

[2] = test system: P. aeruginosa (2943 strain); test: Antibacterial activity in liquid medium (optical density); type: cell-based, Pseudomonas aeruginosa; parameters: key to change of optical density vs negative control: ↓: Decrease in the parameter (optical density) compared to the negative control; −: No decrease in the parameter; ↑: Reverse effect (increase in the optical density compared to the control); settings: 24 h, 37 °C; for change of optical density vs negative control: OD 595 nm
Description: (§2) To evaluate the antibacterial activity of peptides in liquid culture, a stationary-phase culture of the tested bacterial strain was diluted 100-fold in fresh medium containing peptides or gentamicin (positive control) at the specified concentrations. A total volume of 200 µL was added to each well of a 96-well round-bottom microtiter plate. After 24 h of incubation at 37 °C, the samples were transferred to a flat-bottom 96-well microtiter plate, and the optical density was measured at 595 nm. Separately, the optical density of medium containing peptides but no bacteria was measured. These values were used as baseline (zero) readings for subsequent data analysis.

[3] = test system: E. coli (MG1655 strain); test: Early biofilm formation, crystal violet staining; type: cell-based, Escherichia coli; parameters: key: ↓: Decrease in the parameter (optical density) compared to the negative control; −: No decrease in the parameter; ↑: Reverse effect (increase in the optical density compared to the control); settings: peptide present from inoculation, 24 h, OD 595 nm
Description: as §1

[4] = test system: E. coli (MG1655 strain); test: Mature biofilms, MTT assay; type: cell-based, Escherichia coli; settings: mature biofilm
Description: as §1
(§3) A stationary-phase culture of the tested strain was diluted 100-fold in fresh medium (200 µL per well) and added to the wells of a 96-well round-bottom plate. […] After another 24 h, the medium was removed and the wells were rinsed with sterile PBS to eliminate planktonic cells. The procedures for assessing total biofilm biomass and cell metabolic activity using crystal violet and MTT assays were performed in the same manner as described above for early-stage biofilm experiments.

[5] = test system: S. aureus (129B strain); test: Mature biofilms, crystal violet staining; type: cell-based, Staphylococcus aureus; parameters: key: ↓: Decrease in the parameter (optical density) compared to the negative control; −: No decrease in the parameter; ↑: Reverse effect (increase in the optical density compared to the control); settings: mature biofilm: peptide added after 24 h, further 24 h; 0.01-10 mg/mL
Description: as §1, §3

[6] = test system: S. aureus (129B strain); test: Mature biofilms, MTT assay; type: cell-based, Staphylococcus aureus; parameters: key: ↓: Decrease in the parameter (optical density) compared to the negative control; −: No decrease in the optical density; ↑: Reverse effect (increase in the optical density compared to the control); settings: mature biofilm: peptide added after 24 h, further 24 h; 0.01-10 mg/mL
Description: as §1, §3

[7] = test system: E. coli (MG1655 strain); test: Antibacterial activity in liquid medium (optical density); type: cell-based, Escherichia coli; parameters: key to change of optical density vs negative control: ↓: Decrease in the parameter (optical density) compared to the negative control; −: No decrease in the parameter; ↑: Reverse effect (increase in the optical density compared to the control); settings: 24 h, 37 °C; for change of optical density vs negative control: OD 595 nm
Description: as §2

[8] = test system: P. aeruginosa (2943 strain); test: Early biofilm formation, MTT assay; type: cell-based, Pseudomonas aeruginosa; parameters: key: ↓: Decrease in the parameter (optical density) compared to the negative control; −: No decrease in the optical density; ↑: Reverse effect (increase in the optical density compared to the control); settings: 24 h, 0.3% MTT 2 h 37 °C, OD 595 nm
Description: as §1

[9] = test system: P. aeruginosa (2943 strain); test: Mature biofilms, MTT assay; type: cell-based, Pseudomonas aeruginosa; settings: mature biofilm
Description: as §1, §3

[10] = test system: P. aeruginosa (2943 strain); test: Early biofilm formation, crystal violet staining; type: cell-based, Pseudomonas aeruginosa; settings: 24 h; for change of optical density after crystal violet staining vs negative control: peptide present from inoculation, OD 595 nm
Description: as §1

[11] = test system: S. aureus (129B strain); test: Antibacterial activity on 0.7% agar (inhibition zone); type: cell-based, Staphylococcus aureus; parameters: key: +: The presence of a bacterial growth inhibition zone; −: The absence of a bacterial growth inhibition zone; settings: drop on 0.7% agar, 24 h
Description: Drops of the samples were applied to the surface of solidified 0.7% agar at the concentrations indicated in Table 2 and Supplementary S2 (Figures S1–S4). After 24 h of incubation, the results were evaluated based on the presence or absence (+/−) of inhibition zones.
Once the agar solidified, drops of peptide samples at the concentrations 1, 0.1, 0.01, and 0.001 mg/mL were applied to the agar surface.

[12] = test system: P. aeruginosa (2943 strain); test: Mature biofilms, MTT assay; type: cell-based, Pseudomonas aeruginosa; parameters: key: ↓: Decrease in the parameter (optical density) compared to the negative control; −: No decrease in the parameter; ↑: Reverse effect (increase in the optical density compared to the control); settings: mature biofilm: peptide added after 24 h, further 24 h; 0.01-10 mg/mL
Description: as §1, §3

[13] = test system: E. coli (MG1655 strain); test: Mature biofilms, MTT assay; type: cell-based, Escherichia coli; parameters: key: ↓: Decrease in the parameter (optical density) compared to the negative control; −: No decrease in the optical density; ↑: Reverse effect (increase in the optical density compared to the control); settings: mature biofilm: peptide added after 24 h, further 24 h; 0.01-10 mg/mL
Description: as §1, §3

Sequence: RKKRRQRRRGGGGVVVHINGGKFGGGGSRQIKIWFQNRRMKWKK [R44K^S]
- effect on MRSA biofilm formation (crystal violet staining intensity) ([1]; 1 and 10 mg/mL, Figure 1, two independent replicates): inhibitory effect
- concentration given with ↓ (crystal violet) [1]: 1 mg/mL
- concentration given with ↓ (crystal violet) ([1]; listed as R44K^P): 10 mg/mL
- biofilm biomass following treatment (crystal violet) [1]: marked reduction in biofilm biomass
- effectiveness compared to meropenem ([1]; Figure 1): less effective compared to meropenem
- concentration given with ↓ (decrease in optical density) [2]: 10 mg/mL
- change of optical density vs negative control [2]: ↓ (10 mg/mL)
- change of optical density after crystal violet staining vs negative control [3]: ↑
- residual viability of cells (MTT) [4]: did not inhibit
- change of optical density after crystal violet staining vs negative control [5]: ↑
- change of optical density after MTT assay vs negative control [6]: −
- concentration given with ↓ (decrease in optical density) [7]: 0.1 mg/mL
- change of optical density vs negative control [7]: ↓ (0.1 mg/mL)
- change of optical density after MTT assay vs negative control [8]: −
- residual viability of cells (MTT) [9]: did not inhibit
- concentration given with ↓ (crystal violet) [10]: 10 mg/mL
- change of optical density after crystal violet staining vs negative control [10]: ↓ (10 mg/mL)
- bacterial growth inhibition zone ([11]; 0.001 mg/mL): −
- bacterial growth inhibition zone ([11]; 0.01 mg/mL): −
- bacterial growth inhibition zone ([11]; 0.1 mg/mL): −
- bacterial growth inhibition zone ([11]; 1 mg/mL): +
- change of optical density after MTT assay vs negative control [12]: ↑

Sequence: ITDFGIFIGLGGGGSRQIKIWFQNRRMKWKK [I31K^P]
- change of optical density vs negative control [2]: ↑
- change of optical density after MTT assay vs negative control [13]: −
- change of optical density after crystal violet staining vs negative control [3]: ↑
- change of optical density after crystal violet staining vs negative control [5]: ↑
- change of optical density vs negative control [7]: −
- change of optical density after MTT assay vs negative control [8]: −
- change of optical density after crystal violet staining vs negative control [10]: −
- change of optical density after MTT assay vs negative control [12]: ↑

Sequence: RKKRRQRRRGGGGITDFGIFIGL [R23L^P]
- effect on MRSA biofilm formation (crystal violet staining intensity) ([1]; 0.01 mg/mL, Figure 1): inhibitory effect
- concentration given with ↓ (crystal violet) [1]: 10 mg/mL
- biofilm biomass following treatment (crystal violet) [1]: marked reduction in biofilm biomass
- effectiveness compared to meropenem ([1]; Figure 1): less effective compared to meropenem
- concentration given with ↓ (decrease in optical density) [2]: 10 mg/mL
- change of optical density vs negative control [2]: ↓ (10 mg/mL)
- change of optical density after MTT assay vs negative control [13]: −
- change of optical density after crystal violet staining vs negative control [3]: ↑
- residual viability of cells (MTT) [4]: did not inhibit
- change of optical density after crystal violet staining vs negative control [5]: ↑
- change of optical density after MTT assay vs negative control [6]: −
- concentration given with ↓ (decrease in optical density) [7]: 0.1 mg/mL
- change of optical density vs negative control [7]: ↓ (0.1 mg/mL)
- residual viability of cells (MTT) [9]: did not inhibit
- concentration given with ↓ (crystal violet) [10]: 10 mg/mL
- change of optical density after crystal violet staining vs negative control [10]: ↓ (10 mg/mL)
- bacterial growth inhibition zone ([11]; 0.001 mg/mL): −
- bacterial growth inhibition zone ([11]; 0.01 mg/mL): −
- bacterial growth inhibition zone ([11]; 0.1 mg/mL): −
- bacterial growth inhibition zone ([11]; 1 mg/mL): +
- change of optical density after MTT assay vs negative control [12]: ↑

Sequence: VTDFGVFVEIGGGGSRQIKIWFQNRRMKWKK [V31K^T, amyloidogenic fragment of S1 of T. thermophilus linked via glycine-rich linker to antennapedia peptide]
- effect on MRSA biofilm formation (crystal violet staining intensity) ([1]; 0.01 mg/mL, Figure 1): inhibitory effect
- effect on MRSA biofilm formation (crystal violet staining intensity) ([1]; 10 mg/mL, Figure 1): reversed
- concentration given with ↓ (crystal violet) [1]: 10 mg/mL
- biofilm biomass following treatment (crystal violet) [1]: marked reduction in biofilm biomass
- effectiveness compared to meropenem ([1]; Figure 1): less effective compared to meropenem
- concentration given with ↓ (decrease in optical density) [2]: 10 mg/mL
- change of optical density vs negative control [2]: −
- change of optical density vs negative control ([2]; listed as V31K^S): ↓ (10 mg/mL)
- change of optical density after MTT assay vs negative control [13]: −
- change of optical density after crystal violet staining vs negative control [3]: ↑
- residual viability of cells (MTT) [4]: did not inhibit
- change of optical density after crystal violet staining vs negative control [5]: ↑
- change of optical density after MTT assay vs negative control [6]: −
- concentration given with ↓ (decrease in optical density) [7]: 0.1 mg/mL
- change of optical density vs negative control [7]: −
- change of optical density vs negative control ([7]; listed as V31K^S): ↓ (0.1 mg/mL)
- change of optical density after MTT assay vs negative control [8]: −
- residual viability of cells (MTT) [9]: did not inhibit
- concentration given with ↓ (crystal violet) [10]: 10 mg/mL
- change of optical density after crystal violet staining vs negative control [10]: −
- change of optical density after crystal violet staining vs negative control ([10]; listed as V31K^S): ↓ (10 mg/mL)
- bacterial growth inhibition zone ([11]; 0.001 mg/mL): −
- bacterial growth inhibition zone ([11]; 0.01 mg/mL): −
- bacterial growth inhibition zone ([11]; 0.1 mg/mL): −
- bacterial growth inhibition zone ([11]; 1 mg/mL): −
- change of optical density after MTT assay vs negative control [12]: ↑

Sequence: RKKRRQRRRGGGGVTDFGVFVEI [R23I^T, TAT cell-penetrating peptide linked via glycine linker to amyloidogenic fragment of S1 ribosomal protein of T. thermophilus]
- concentration given with ↓ (decrease in optical density) [2]: 10 mg/mL
- change of optical density vs negative control [2]: ↓ (10 mg/mL)
- change of optical density after crystal violet staining vs negative control [3]: ↑
- residual viability of cells (MTT) [4]: did not inhibit
- change of optical density after MTT assay vs negative control [6]: −
- change of optical density vs negative control [7]: ↑
- change of optical density after MTT assay vs negative control [8]: −
- residual viability of cells (MTT) [9]: did not inhibit
- change of optical density after crystal violet staining vs negative control [10]: −
- bacterial growth inhibition zone ([11]; 0.001 mg/mL): −
- bacterial growth inhibition zone ([11]; 0.01 mg/mL): −
- bacterial growth inhibition zone ([11]; 0.1 mg/mL): −
- bacterial growth inhibition zone ([11]; 1 mg/mL): +
